ChEMBL document CHEMBL1201862, “PubChem BioAssay data set” (2004)
Active and inactive are the calls of the source.

How the values were obtained:
[1] = CellTiter-Glo luminescence survival assay, SW480 colon tumor line, concentration-response curve, half-maximal inhibitory concentration (AID 1117338); assay type: functional
[2] = Reduced DLD-1 viability, concentration-response, CellTiter-Glo luminescence (AID 1117352); assay type: functional
[3] = cytotoxicity toward HT-29 cells – cell-based, CellTiter-Glo luminescence, IC50, dose response (AID 1117330); assay type: functional
[4] = RKO cell viability reduction, dose response, CellTiter-Glo luminescence (AID 1117322); assay type: functional
[5] = cytotoxicity toward HCT116 cells – cell-based, CellTiter-Glo luminescence, IC50, dose response (AID 1117332); assay type: functional; conditions: HCT-116
[6] = cytotoxicity toward Colo320 cells – cell-based, CellTiter-Glo luminescence, IC50, dose response (AID 1117334); assay type: functional; conditions: COLO 320
[7] = SNU-C1 cell viability reduction, dose response, CellTiter-Glo luminescence (AID 1117323); assay type: functional, cell-based
HEK293 = assay: viability loss in HEK293T cells – cell-based, ATP luminescence, cherry-pick samples, cytotoxicity control, dose response (AID 687005); assay type: functional; conditions: Homo sapiens;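 also: cells exposed to compound for 48 hours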
[8] = HEK293 Cytotoxicity Assay Measured in Cell-Based System Using Plate Reader - 7071-01_Inhibitor_Dose_CherryPick_Activity_Set2.; assay type: functional
[9] = biological target: T1, Oxysterols receptor LXR-beta (Homo sapiens, UniProt P55055); assay type: functional, cell-based;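 also: agonist activity at LXR measured by a cell-based luminescence readout across a dose range, run as a counterscreen for daf-12 agonists; HEK293 cells with Gal4-LXR fusion and GAL4-driven luciferase reporter; potency for activation of Gal4-LXR reporter so compounds are agonists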
T1 sequence (P55055 whole entry): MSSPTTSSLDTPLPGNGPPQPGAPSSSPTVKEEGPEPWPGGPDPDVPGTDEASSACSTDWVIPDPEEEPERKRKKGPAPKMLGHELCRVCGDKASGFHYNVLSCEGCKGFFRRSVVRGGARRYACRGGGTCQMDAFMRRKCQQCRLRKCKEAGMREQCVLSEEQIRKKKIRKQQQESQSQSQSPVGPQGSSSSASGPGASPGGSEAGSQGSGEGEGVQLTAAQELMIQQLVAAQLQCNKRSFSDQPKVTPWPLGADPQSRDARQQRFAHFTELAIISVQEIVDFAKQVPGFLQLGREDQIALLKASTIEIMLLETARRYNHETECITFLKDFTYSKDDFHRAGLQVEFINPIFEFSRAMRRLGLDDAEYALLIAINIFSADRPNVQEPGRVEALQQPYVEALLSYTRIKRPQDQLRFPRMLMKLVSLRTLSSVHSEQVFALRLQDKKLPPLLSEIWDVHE

BJ [10] = assay: cells; assay type: functional, cell-based; conditions: Homo sapiens
[11] = DRD fibroblast viability loss – cell-based, non-viral oncogenic, luminescence, dose response (AID 1934); assay type: functional; conditions: Homo sapiens
cells [12] = conditions: HEK293;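 also: cells exposed to compound for 48 hours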
cells [13] = conditions: A549
BJ [14] = assay: BJ-TERT-LT-ST fibroblast viability loss – cell-based, RAS-independent, luminescence, dose response (AID 1935); assay type: functional; conditions: Homo sapiens;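 also: BJ fibroblasts immortalized with TERT plus LT and ST oncogenes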
BJ [15] = assay: BJ-TERT fibroblast viability loss – cell-based, RAS-independent, luminescence, dose response (AID 1933); assay type: functional; conditions: Homo sapiens
[16] = growth inhibition of yeast DHODH-expressing 3D7 parasites – SYBR Green, dry powder samples, dose response (AID 1159570); assay type: functional, cell-based;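 also: parasite growth measured after 72 hours of compound exposure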
[17] = P. falciparum Dd2 growth inhibitors, dose response, SYBR Green, cherry-picked samples (AID 1159567); assay type: functional, cell-based
[18] = growth inhibition of PfATP4-mutant resistant parasites – NITD609-resistant line, SYBR Green, dry powder, dose response (AID 1159571); assay type: functional, cell-based;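 also: parasites synchronized at ring stage by sorbitol before testing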
[19] = toxicity to human HepG2 hepatoma cells – cell-based, plate reader, dry powder samples, cytotoxicity control, dose response (AID 1159569); assay type: functional;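 also: inhibitor potency with signal falling toward the positive control level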
[20] = Dd2 malaria parasite growth inhibition potency – SYBR Green, dry powder samples, dose response (AID 1159566); assay type: functional, cell-based;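 also: potency for growth inhibition with lower SYBR green DNA signal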
cells [21] = assay: cells
Beta-lactamase [22] = biological target: Beta-lactamase (Salmonella choleraesuis (strain SC-B67), UniProt Q5J463)
Beta-lactamase [23] = biological target: Beta-lactamase (Pseudomonas aeruginosa, UniProt Q79MP6);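 also: biochemical dose-response test of metallo-beta-lactamase enzyme inhibition, read out by epi-absorbance; purified recombinant IMP-1 metallo-beta-lactamase with nitrocefin as substrate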
[24] = microbe, parasite or virus in culture; assay type: functional; conditions: Mycobacterium tuberculosis
Major prion protein = Major prion protein (Homo sapiens, UniProt P04156); assay type: functional, cell-based
[25] = Luminescence Cell-Based Dose Response HTS to Identify Inhibitors of 5'UTR Stem-Loop Driven Prion Protein mRNA Translation in H4 Neuroglioblastoma Cells. [Related pubchem assays: 1827 (Project Summary), 1813 (Primary HTS)]; assay type: functional
INS1 = assay: INS-1E survival protection against cytokine death – cell-based, luminescence, retest, dose response (AID 449756); assay type: functional; conditions: Rattus norvegicus;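 also: cell death triggered by IL-1 beta plus TNF-alpha plus IFN-gamma mixture; protective hits raise ATP signal compared with cytokine alone wells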
[26] = luciferase reporter signal suppression in cells – H4 neuroglioma cells, luminescence, dose response (AID 1990); assay type: functional, cell-based
[27] = alpha-synuclein stem-loop luciferase translation blockers – H4 neuroglioma cells, luminescence, confirmation (AID 1988); assay type: functional, cell-based
Paired box protein Pax-8 = Paired box protein Pax-8 (Homo sapiens, UniProt Q06710); assay: PAX8 transcriptional activity inhibition in RMG-I – RMG-I cells, luciferase, cherry-pick, dose response (AID 687027); assay type: functional, cell-based;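 also: luciferase reporter driven by Pax8 target thyroperoxidase promoter measured by SteadyGlo luminescence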
[28] = toxicity to human hepatoma HepG2 cells – cell-based, cherry-picked samples, cytotoxicity control, dose response (AID 1159577); assay type: functional
[29] = reduced cellular PGC1a acetyl-lysine signal – cell-based, cherry-picked samples, dose response (AID 720514); assay type: functional;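 also: potency may reflect raised or lowered acetylation signal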
[30] = OVCAR8 cell viability loss – plate reader, dry powder samples, PAX8 project, dose response (AID 743197); assay type: functional, cell-based; conditions: OVCAR-8
[31] = OVCAR-3 cell viability loss – plate reader, dry powder samples, PAX8 inhibitor project, dose response (AID 743044); assay type: functional, cell-based
[32] = toxicity toward immortalized ovarian surface epithelium – cell-based, plate reader, dry powder samples, cytotoxicity control for PAX8 inhibitor project, dose response (AID 743045); assay type: functional
[33] = general cell-killing toxicity readout – plate reader, dry powder samples, cytotoxicity control for PAX8 inhibitor project, dose response (AID 743021); assay type: functional, cell-based
[34] = MITF Orthogonal Assay: SK-MEL-5 CTG Assay Measured in Cell-Based System Using Plate Reader - 2084-02_Inhibitor_Dose_DryPowder_Activity_Set7.; assay type: functional
[35] = MITF: Counter assay: A375 proliferation Measured in Cell-Based System Using Plate Reader - 2084-03_Inhibitor_Dose_DryPowder_Activity_Set8.; assay type: functional; conditions: A-375
[36] = inhibitors of TRPM1-promoter reporter in SK-MEL-5 – cell-based, luciferase, dry powder, set 8, MITF inhibitor project, dose response (AID 624430); assay type: functional
Mu-type opioid receptor = Mu-type opioid receptor (Homo sapiens, UniProt P35372); assay: Late-stage results from the probe development effort to identify antagonists of OPRK1: luminescence-based cell-based dose response OPRM1 counterscreen.; assay type: functional
[37] = biological target: Delta-type opioid receptor (Homo sapiens, UniProt P41143); assay: Late-stage results from the probe development effort to identify antagonists of OPRK1: fluorescence-based cell-based dose response OPRD1 counterscreen.; assay type: functional
[38] = toxicity toward HepG2 hepatoma cells – cell-based, dry powder samples, cytotoxicity control, dose response (AID 720568); assay type: functional

CCn1cc(C(=O)O)c(=O)c2cnc(N3CCNCC3)nc21 [PIPEMIDIC ACID]
IC50 [1]: > 20 µM (inactive) | IC50 [2]: > 20 µM (inactive) | IC50 [3]: > 20 µM (inactive) | IC50 [4]: > 20 µM (inactive) | IC50 [5]: > 20 µM (inactive) | IC50 [6]: > 20 µM (inactive) | IC50 [7]: > 20 µM (inactive)

CN1[C@@H]2c3ccc(-c4cccnc4)c(=O)n3C[C@@H]2[C@@H](CO)[C@@H]1C(=O)N1CCc2ccccc2C1
AC50 (HEK293): > 52 µM (inactive) | AC50 [8]: > 52 µM (inactive)

Cc1cccc(C(=N)NOC(=O)c2ccco2)c1
EC50 [9]: > 67.6 µM (inactive)

CN(C)C(=O)CSc1nc2cc(C(=O)c3ccccc3)ccc2[nH]1
EC50 (BJ [10]): 14.3 µM (inconclusive) | EC50 [11]: > 150 µM (not active) | AC50 (cells [12]): 29.9 µM (active) | AC50 (cells [13]): 35.9 µM (active) | EC50 (BJ [14]): > 150 µM (inconclusive) | EC50 (BJ [15]): > 150 µM (not active)

COc1ccc(S(=O)(=O)N2CCC3(CC2)CN(Cc2ccncc2)[C@@H](CO)c2[nH]c4cc(OC)ccc4c23)cc1
AC50 [16]: 1.41 µM (active) | AC50 [17]: 2.29 µM (active) | AC50 [18]: 1.67 µM (active) | AC50 [19]: 22.9 µM (active) | AC50 [20]: 1.17 µM (active)

CCOc1ccc(-c2cc(C(=O)NCCCn3ccnc3)c3cc(Br)ccc3n2)cc1
IC50 (cells [21]): 23.5 µM (inactive) | IC50 (Beta-lactamase [22]): > 59.6 µM (inactive) | IC50 (Beta-lactamase [23]): > 59.6 µM (inactive) | CC50 [24]: 16.7 µM (active) | IC50 (Major prion protein): 4.38 µM (active) | EC50 [25]: > 120 µM (not active) | AC50 (INS1): 9.7 µM (active) | EC50 [26]: > 120 µM (not active) | EC50 [27]: > 120 µM (not active)

Cc1ccc(-c2ccc([C@@H]3[C@@H]4CN(C(=O)Nc5ccc(C(F)(F)F)cc5)C[C@H]3N4)cc2)cc1
AC50 (Paired box protein Pax-8): 3.06 µM (active) | AC50 [17]: 2.33 µM (active) | AC50 [28]: 2.72 µM (active) | AC50 [29]: 6.73 µM (active) | AC50 [30]: 22.8 µM (active) | AC50 [31]: 17 µM (active) | AC50 [32]: 11.3 µM (active) | AC50 [33]: 14 µM (active)

CCN1CCN(C2=C(Nc3ccc(Br)cc3)C(=O)c3ccccc3C2=O)CC1
AC50 [34]: 8.61 µM (active) | AC50 [35]: 29.3 µM (active) | AC50 [36]: 10.7 µM (active)

COC(=O)c1cc(Br)cnc1N1CCC(NC2CCCC(O)C2)CC1 (centres undefined)
IC50 (Mu-type opioid receptor): 16 µM (inactive) | IC50 [37]: > 50 µM (inactive)

CC(=O)N[C@H]1[C@@H](O[C@@H]2OC(C[C@@H](O)C3O[C@@H](n4ccc(=O)[nH]c4=O)[C@H](O)[C@@H]3O)[C@H](O)[C@H](O)[C@H]2NC(=O)/C=C/CCCCCCCCCCC(C)C)O[C@H](CO)[C@@H](O)[C@@H]1O (some centres undefined)
AC50 [38]: 13.5 µM (active)
